# Laboratory results reported in PMC10549826 (Antiviral research, 2023).
# Key:
# Type in all cases: biochemical, influenza A(H3N2) virus
# [1] = target: A/Victoria/361/2011 NA with T439R (Q136, T148, R150, R439) (Influenza A virus, UniProt G9LQ08, H150R/T439R)
# [2] = target: A/Victoria/361/2011 NA with T148I (Q136, I148, R150, T439) (Influenza A virus, UniProt G9LQ08, H150R/T148I)
# [3] = target: A/Victoria/361/2011 NA with R150H (Q136, T148, H150, T439) (Influenza A virus, UniProt G9LQ08)
# [4] = target: A/Victoria/361/2011 NA with Q136K (K136, T148, R150, T439) (Influenza A virus, UniProt G9LQ08, H150R/Q136K)
smiles,measurement,setting,value
"CCC(CC)[C@H](NC(C)=O)[C@@H]1[C@H](O)[C@@H](C(=O)O)C[C@H]1N=C(N)N [Peramivir, peramivir]",IC50,[1],240 pM
same,IC50 fold-change,[1],0.24 ± 0.04 (3) fold
same,IC50,[2],90 pM
same,IC50 fold-change,[2],0.09 ± 0.01 (1) fold
same,IC50,[3],80 pM
same,IC50 fold-change,[3],0.08 ± 0.01 (1) fold
same,IC50,[4],560 pM
same,IC50 fold-change,[4],0.56 ± 0.09 (8) fold
